Measurements published in publication PMC6511041 (Proceedings of the National Academy of Sciences of the …, 2019).

Legend:
Olfr1062 = target: T1, Olfr1062 (Mus musculus, UniProt Q7TR71); assay: Dual-Glo firefly/Renilla luciferase reporter, dose-response; assay type: cell-based; conditions: odorant up to 0.3 mM; competitive-binding model fit, single odorant
T1 sequence (Q7TR71 1-315): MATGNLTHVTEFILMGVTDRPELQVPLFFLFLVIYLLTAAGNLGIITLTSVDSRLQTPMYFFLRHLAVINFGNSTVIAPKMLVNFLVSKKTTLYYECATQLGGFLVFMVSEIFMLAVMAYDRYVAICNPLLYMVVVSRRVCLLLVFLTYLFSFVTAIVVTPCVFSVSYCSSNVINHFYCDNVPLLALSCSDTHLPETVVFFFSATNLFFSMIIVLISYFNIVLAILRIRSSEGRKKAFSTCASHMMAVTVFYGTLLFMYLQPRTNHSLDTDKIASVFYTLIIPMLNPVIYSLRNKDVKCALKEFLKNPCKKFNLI

OR5P3 = target: T2, OR5P3 (Homo sapiens, UniProt Q8WZ94); assay: as above; assay type: cell-based; conditions: odorant up to 0.3 mM; competitive-binding model fit, single odorant
T2 sequence (Q8WZ94 1-311): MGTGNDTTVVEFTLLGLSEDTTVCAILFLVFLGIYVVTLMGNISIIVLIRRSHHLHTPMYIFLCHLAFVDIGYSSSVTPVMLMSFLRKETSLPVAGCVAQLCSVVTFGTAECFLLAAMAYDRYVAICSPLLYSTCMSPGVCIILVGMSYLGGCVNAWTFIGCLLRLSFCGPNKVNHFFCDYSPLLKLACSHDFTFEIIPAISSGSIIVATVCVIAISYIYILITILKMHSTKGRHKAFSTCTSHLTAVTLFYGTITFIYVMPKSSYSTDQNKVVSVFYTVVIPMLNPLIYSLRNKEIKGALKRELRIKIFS

In the case of `C=CCc1ccc(O)c(OC)c1` [eugenol], the EC50 (Olfr1062) is reported as “Olfr1062, synergy between all three pairs”.
For `CC(=O)c1ccccc1` [acetophenone], the EC50 (Olfr1062) was “Olfr1062, synergy between all three pairs” and the EC50 (OR5P3) was “OR5P3, synergy between coumarin and acetophenone”.
With `O=c1ccc2ccccc2o1` [coumarin] the EC50 (Olfr1062) was “Olfr1062, synergy between all three pairs” and the EC50 (OR5P3) was “OR5P3, synergy between coumarin and acetophenone”.
